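Abbreviation: GI50, concentration required for 50% inhibition of growth. TGI denotes the concentration required for complete inhibition of growth.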
Experiments:
Experiment in all cases: NCI-60 cell line screen, 384-well format
A549 NSCLC = test system: A549 NSCLC
BT-549 breast = test system: BT-549 breast
CCRF-CEM leukemia = test system: CCRF-CEM leukemia
EKVX NSCLC = test system: EKVX NSCLC
MCF7 breast = test system: MCF7 breast
MDA-MB-468 breast = test system: MDA-MB-468 breast
MOLT-4 leukemia = test system: MOLT-4 leukemia
OVCAR-3 ovarian = test system: OVCAR-3 ovarian
SF-295 CNS = test system: SF-295 CNS
SF-539 CNS = test system: SF-539 CNS
SK-OV-3 ovarian = test system: SK-OV-3 ovarian
SNB-19 CNS = test system: SNB-19 CNS
T-47D breast = test system: T-47D breast

Question: How did the GI50 (A549 NSCLC) turn out when `COCCOc1cc(F)c2c(Nc3ccc(NC(=O)Cn4cc(C(C)C)nn4)cc3)ncnc2c1` was run?
Answer: The GI50 was 53.2 µM.

Question: And the TGI (A549 NSCLC)?
Answer: Its TGI is greater than 100 µM.

Question: What about the GI50 (BT-549 breast) of the same compound?
Answer: The GI50 was 38.4 µM.

Question: What about the TGI (BT-549 breast) of the same compound?
Answer: The TGI was greater than 100 µM.

Question: What about the GI50 (CCRF-CEM leukemia) of the same compound?
Answer: The GI50 was 7.64 µM.

Question: What about the TGI (CCRF-CEM leukemia) of the same compound?
Answer: Its TGI is 37.9 µM.

Question: What about the GI50 (EKVX NSCLC) of the same compound?
Answer: The GI50 was 41 µM.

Question: What about the TGI (EKVX NSCLC) of the same compound?
Answer: Its TGI is greater than 100 µM.

Question: And the GI50 (MCF7 breast)?
Answer: The GI50 was 21.9 µM.

Question: What about the TGI (MCF7 breast) of the same compound?
Answer: Its TGI is greater than 100 µM.

Question: What about the GI50 (MDA-MB-468 breast) of the same compound?
Answer: Its GI50 is 7.69 µM.

Question: What about the TGI (MDA-MB-468 breast) of the same compound?
Answer: The TGI was greater than 100 µM.

Question: And the GI50 (MOLT-4 leukemia)?
Answer: Its GI50 is 3.68 µM.

Question: What about the TGI (MOLT-4 leukemia) of the same compound?
Answer: Its TGI is 18.7 µM.

Question: What about the GI50 (OVCAR-3 ovarian) of the same compound?
Answer: Its GI50 is 50.7 µM.

Question: And the TGI (OVCAR-3 ovarian)?
Answer: The TGI was greater than 100 µM.

Question: What about the GI50 (SF-295 CNS) of the same compound?
Answer: The GI50 was greater than 100 µM.

Question: What about the TGI (SF-295 CNS) of the same compound?
Answer: Its TGI is greater than 100 µM.

Question: What about the GI50 (SF-539 CNS) of the same compound?
Answer: Its GI50 is 11.6 µM.

Question: What about the TGI (SF-539 CNS) of the same compound?
Answer: Its TGI is greater than 100 µM.

Question: And the GI50 (SK-OV-3 ovarian)?
Answer: The GI50 was 86.1 µM.

Question: And the TGI (SK-OV-3 ovarian)?
Answer: The TGI was greater than 100 µM.

Question: What about the GI50 (SNB-19 CNS) of the same compound?
Answer: Its GI50 is greater than 100 µM.

Question: What about the TGI (SNB-19 CNS) of the same compound?
Answer: The TGI was greater than 100 µM.

Question: What about the GI50 (T-47D breast) of the same compound?
Answer: The GI50 was 5.9 µM.

Question: And the TGI (T-47D breast)?
Answer: The TGI was greater than 100 µM.

— PubChem BioAssay (NCI)
